From PubChem BioAssay (NCI)
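These data come from cells grown in 96-well plates and exposed to compound for 48 hours at five concentrations. The concentration for full growth arrest is given as TGI.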

How the values were obtained:
Assay in all cases: inhibition of tumour cell growth, NCI panel, 48 h
[1] = system: CAKI-1 renal
[2] = system: U251 CNS
[3] = system: SNB-19 CNS
[4] = system: HOP-92 NSCLC
[5] = system: MCF7 breast
[6] = system: HT29 colon
[7] = system: OVCAR-8 ovarian
[8] = system: HCT-15 colon
[9] = system: HCT-116 colon
[10] = system: HCC-2998 colon
[11] = system: UO-31 renal
[12] = system: SK-MEL-28 melanoma
[13] = system: K-562 leukemia
[14] = system: BT-549 breast
[15] = system: SN12C renal
[16] = system: TK-10 renal
[17] = system: SF-539 CNS
[18] = system: SR leukemia
[19] = system: SNB-75 CNS
[20] = system: A498 renal

SMILES | TGI [1] [µM] | TGI [2] [µM] | TGI [3] [µM] | TGI [4] [µM] | TGI [5] [µM] | TGI [6] [µM] | TGI [7] [µM] | TGI [8] [µM] | TGI [9] [µM] | TGI [10] [µM] | TGI [11] [µM] | TGI [12] [µM] | TGI [13] [µM] | TGI [14] [µM] | TGI [15] [µM] | TGI [16] [µM] | TGI [17] [µM] | TGI [18] [µM] | TGI [19] [µM] | TGI [20] [µM]
Nc1cccc(Nc2nc3ccccc3nc2NS(=O)(=O)c2ccccc2)c1 | 80.3 | 35.3 | 62.2 | 78 | > 100 | 62.6 | > 100 | 74.2 | 32.9 | 33.9 | 50.4 | 49.3 | 76.3 | 44.9 | > 100 | > 100 | 45.3 | 57.8 | > 100 | –
CN(C)c1ccc(C2SCC(=O)N2NS(=O)(=O)c2cccc(C(=O)O)c2)cc1 (stereo unspecified) | > 100 | > 100 | > 100 | > 100 | > 100 | > 100 | 32.6 | > 100 | > 100 | > 100 | > 100 | > 100 | > 100 | > 100 | > 100 | > 100 | > 100 | – | > 100 | –
O=C(O)CC[N+]1=CCC(c2ccccc2)(c2ccccc2)O1 | > 100 | > 100 | > 100 | > 100 | > 100 | > 100 | > 100 | > 100 | > 100 | > 100 | > 100 | > 100 | > 100 | > 100 | > 100 | > 100 | > 100 | – | > 100 | > 100
Cc1cc(C2(O)C=C(C(C)(C)C)C(=O)C(C(C)(C)C)=C2)c(C)cc1C1(O)C=C(C(C)(C)C)C(=O)C(C(C)(C)C)=C1 | > 100 | > 100 | > 100 | – | > 100 | > 100 | > 100 | > 100 | > 100 | – | > 100 | > 100 | > 100 | > 100 | > 100 | > 100 | > 100 | > 100 | > 100 | –
O=c1nc2c(c(-c3ccccc3Cl)[nH]1)COC/C2=C\c1ccccc1Cl | > 100 | > 100 | > 100 | > 100 | > 100 | > 100 | > 100 | > 100 | > 100 | > 100 | > 100 | > 100 | – | > 100 | > 100 | > 100 | > 100 | – | > 100 | > 100
